Laboratory results taken from patent US20230348475A1, “IMIDAZOPYRIDAZINE AND IMIDAZOPYRAZINE COMPOUNDS AS INHIBITORS OF CDK7” (THE TRANSLATIONAL GENOMICS RESEARCH INSTITUTE, priority 2020, published 2023).
Counter-ions that a name gives are not always drawn.

Assays:
CDK7/CycH/MAT1 = CDK7/CycH/MAT1 (Homo sapiens, UniProt P50613); experiment: Kinase Glo (ADP-Glo) biochemical assay, CDK7; conditions: CDK7/CycH/MAT1 40 ng, ATP 1 μM, 60 minutes at RT, luminescence
Procedure: Materials: • Assay Buffer: 50 mM HEPES, 3 mM MgCl2, 3 mM MnCl2, 1 mM DTT, 3 μM Na3VO4, pH 7.5 • Substrate RB • CTF Peptide (ProQinase #: 0040-0000-6) • Enzymes • CDK7/CycH/MAT1 (ProQinase #: 0366-0360-4) • ADP-Glo™ Assay (Promega #: V9101) • ATP: 10 mM • ADP-Glo™ Reagent • Kinase Detection Reagent • 384-well white assay plates
A ten point serial dilution of compound was prepared at 5X concentration in assay buffer with the final assay concentrations starting at 30 μM, 10 μM, 3 μM, 1 μM . . . 0 μM. Enzyme, substrate, and ATP were used at 40 ng, 200 ng (or 400 ng)* and 1 μM, respectively. The assay plate was set up by mixing the components in a total reaction volume of 10 μL per well. The plate was centrifuged gently for 10 seconds and incubated at room temperature (RT) for 60 minutes in the dark. The ADP-Glo Reagent and kinase detection reagent were added and incubated as recommended. The reaction was quantified by measuring luminescence on the Perkin Elmer Envision plate reader.

[1] = test system: Kasumi1 leukemia cancer cell line; experiment: Cell viability assay (Cell Titer Glo), Kasumi1; assay type: cell-based; conditions: Homo sapiens, Kasumi 1, Table 7a, 72 hour incubation
Procedure: (§1) Materials: • Cell Lines (Treated according to ATCC guidelines) • Cell Titer Glo (Promega Cat #G7572) • DMSO • 96-well White Tissue Culture Treated Plates (Perkin Elmer Cat #60005680)
(§2) Cells were seeded in a white 96-well tissue culture treated plate at a density of 1500 cells in 90 μL of media per well and allowed to settle overnight. A ten point serial dilution of drugs was prepared at 10×concentration in media with the final assay concentrations starting at 30 μM, 10 μM, 3 μM, 1 μM, 0.3 μM . . . 0 μM. A dilution of DMSO was included as a control. The assay was set up by adding 10 μL of the corresponding drug to each well in duplicate, followed by a 72 hour incubation at 37° C., 5% CO2. Cell viability was quantified by adding 90 μL of Cell Titer Glo to each well and incubating at room temperature for 10 minutes. The reaction was quantified by measuring luminescence using the Envision Plate Reader. Data was analyzed using Graphpad Prism 7 software.

[2] = test system: MiaPaCa2 pancreatic cancer cell line; experiment: Cell viability assay (Cell Titer Glo), MiaPaCa2; assay type: cell-based; conditions: Homo sapiens, MIA PaCa-2; Table 7a; pancreatic cancer cell line, 72 hour incubation
Procedure: as §1, §2

[3] = test system: MDA-MB-231 breast cancer cell line; experiment: Cell viability assay (Cell Titer Glo), MDA-MB-231; assay type: cell-based; conditions: Homo sapiens, MDA-MB-231; Table 7a; breast cancer cell line, 72 hour incubation
Procedure: as §1, §2

[4] = test system: HPAC pancreatic cancer cell line; experiment: Cell viability assay (Cell Titer Glo), HPAC; assay type: cell-based; conditions: Homo sapiens, HPAC; Table 7a; pancreatic cancer cell line, 72 hour incubation
Procedure: as §1, §2

[5] = test system: A2780 ovarian cancer cell line; experiment: Cell viability assay (Cell Titer Glo), A2780; assay type: cell-based; conditions: Homo sapiens, A2780, Table 7a, 72 hour incubation
Procedure: as §1, §2

[6] = test system: A673 Ewingsarcoma cell line; experiment: Cell viability assay (Cell Titer Glo), A673; assay type: cell-based; conditions: Homo sapiens, A673, Table 7a, 72 hour incubation
Procedure: as §1, §2

Chain of CDK7/CycH/MAT1 (P50613 whole entry): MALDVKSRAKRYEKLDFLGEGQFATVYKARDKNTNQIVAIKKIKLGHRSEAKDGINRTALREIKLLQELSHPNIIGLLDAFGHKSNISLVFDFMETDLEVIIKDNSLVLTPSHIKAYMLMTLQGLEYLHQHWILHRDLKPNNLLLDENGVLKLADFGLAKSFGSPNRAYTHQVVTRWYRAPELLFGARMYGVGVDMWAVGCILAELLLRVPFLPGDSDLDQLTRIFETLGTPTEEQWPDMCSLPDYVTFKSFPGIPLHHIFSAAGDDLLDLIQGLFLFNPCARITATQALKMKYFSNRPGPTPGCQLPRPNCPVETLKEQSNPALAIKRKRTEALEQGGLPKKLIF
Chain of CDK7/CycH/MAT1 (P51946 whole entry partner): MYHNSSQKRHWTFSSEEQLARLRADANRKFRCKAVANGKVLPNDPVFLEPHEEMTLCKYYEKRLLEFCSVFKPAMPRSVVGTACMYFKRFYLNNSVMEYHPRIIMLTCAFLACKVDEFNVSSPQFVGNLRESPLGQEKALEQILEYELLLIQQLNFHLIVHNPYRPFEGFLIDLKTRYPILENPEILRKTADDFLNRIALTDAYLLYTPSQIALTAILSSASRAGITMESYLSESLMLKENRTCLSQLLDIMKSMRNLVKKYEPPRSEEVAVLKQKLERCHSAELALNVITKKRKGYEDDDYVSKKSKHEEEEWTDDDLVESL
Chain of CDK7/CycH/MAT1 (P51948 whole entry partner): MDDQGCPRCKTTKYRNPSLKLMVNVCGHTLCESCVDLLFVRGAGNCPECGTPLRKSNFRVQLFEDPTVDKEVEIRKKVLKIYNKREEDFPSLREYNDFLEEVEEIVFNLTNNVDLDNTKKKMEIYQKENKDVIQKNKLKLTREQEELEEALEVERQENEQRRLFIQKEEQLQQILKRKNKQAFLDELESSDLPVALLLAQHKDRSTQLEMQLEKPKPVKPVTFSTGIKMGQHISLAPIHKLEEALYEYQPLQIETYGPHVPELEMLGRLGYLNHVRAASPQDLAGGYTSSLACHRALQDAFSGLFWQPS

Row | Compound | IC50 (CDK7/CycH/MAT1) [nM] | IC50 [1] [nM] | IC50 [2] [nM] | IC50 [3] [nM] | IC50 [4] [nM] | IC50 [5] [nM] | IC50 [6] [nM]
1 | CC(C)c1cnc2c(N[C@@H](C)c3ccccc3)nc(SC3CCCNC3)cn12 (stereo partly drawn) [Compound 34, 3-isopropyl-N-((S)-1-phenylethyl)-6-(piperidin-3-ylthio)imidazo[1,2-α]pyrazin-8-amine hydrochloride] | < 100 | 1000 to 5000 | 1000 to 5000 | > 5000 | 1000 to 5000 | 1000 to 5000 | > 5000
2 | c1ccc(CNc2cc(SC3CCCNC3)nn3c(C4CC4)cnc23)cc1 (centres unmarked) [Compound 22, N-benzyl-3-cyclopropyl-6-(piperidin-3-ylthio)imidazo[1,2-b]pyridazin-8-amine formate] | < 100 | 1000 to 5000 | 1000 to 5000 | 1000 to 5000 | 1000 to 5000 | 1000 to 5000 | 1000 to 5000
3 | CC(C)c1cnc2c(NCc3ccccc3C(F)(F)F)cc(SC3CCNCC3)nn12 [Compound 53, 3-isopropyl-6-(piperidin-4-ylthio)-N-(2-(trifluoromethyl)benzyl)imidazo[1,2-b]pyridazin-8-amine hydrochloride] | < 100 | – | < 1000 | 1000 to 5000 | < 1000 | < 1000 | –
4 | COc1ccccc1CNc1cc(SC2CCNCC2)nn2c(C(C)C)cnc12 [Compound 35, hydrochloride] | < 100 | 1000 to 5000 | < 1000 | 1000 to 5000 | < 1000 | < 1000 | < 1000
5 | CC(C)c1cnc2c(Nc3cccc(F)c3)cc(SC3CCNCC3)nn12 [Compound 44, N-(3-fluorophenyl)-3-isopropyl-6-(piperidin-4-ylthio)imidazo[1,2-b]pyridazin-8-amine hydrochloride] | < 100 | < 1000 | < 1000 | < 1000 | < 1000 | < 1000 | < 1000
6 | COc1ccccc1CNc1cc(NC2CCNCC2)nn2c(C(C)C)cnc12 [Compound 40, 3-isopropyl-N8-(2-methoxybenzyl)-N6-(piperidin-4-yl)imidazo[1,2-b]pyridazine-6,8-diamine hydrochloride] | < 100 | > 5000 | 1000 to 5000 | 1000 to 5000 | 1000 to 5000 | 1000 to 5000 | 1000 to 5000
7 | CC(C)c1cnc2c(NCc3ccccc3OC(F)(F)F)cc(SC3CCCNC3)nn12 (centres unmarked) [Compound 37, 3-isopropyl-6-(piperidin-3-ylthio)-N-(2-(trifluoromethoxy)benzyl)imidazo[1,2-b]pyridazin-8-amine] | < 100 | 1000 to 5000 | 1000 to 5000 | 1000 to 5000 | 1000 to 5000 | 1000 to 5000 | 1000 to 5000
8 | CC(C)c1cnc2c(Nc3cccc(F)c3)cc(NC3CCNCC3)nn12 [Compound 45, N8-(3-fluorophenyl)-3-isopropyl-N6-(piperidin-4-yl)imidazo[1,2-b]pyridazine-6,8-diamine hydrochloride] | < 100 | 1000 to 5000 | < 1000 | 1000 to 5000 | 1000 to 5000 | 1000 to 5000 | 1000 to 5000
9 | CC(C)c1cnc2c(NCc3ccccc3)cc(S[C@@H]3CCCNC3)nn12 (single isomer, unassigned) [Compound 41, hydrochloride] | < 100 | – | 1000 to 5000 | 1000 to 5000 | 1000 to 5000 | 1000 to 5000 | 1000 to 5000
10 | COc1ccccc1CNc1nc(SC2CCNCC2)cn2c(C(C)C)cnc12 [Compound 51, 3-isopropyl-N-(2-methoxybenzyl)-6-(piperidin-4-ylthio)imidazo[1,2-a]pyrazin-8-amine formate] | < 100 | – | 1000 to 5000 | > 5000 | 1000 to 5000 | 1000 to 5000 | –
